Assays:
Rho kinase 1 (ROCK-I) = Rho kinase 1 (ROCK-I) (Homo sapiens, UniProt Q13464); assay: In vitro Rho kinase inhibitory activity assay (ADP-Glo), Rho kinase 1; format: biochemical; details: 10 μM ATP, 25° C., expressed as range of activity
How it was run: (§1)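 ADP-Glo luminescence assay at 25 °C in 40 mM Tris pH 7.5, 20 mM MgCl2, 0.1 mg/ml BSA, 50 μM DTT, with 2.5 μM myelin basic protein, 10 μM ATP and 1% DMSO. Compound and ROCK1 or ROCK2 were preincubated 30 min, then reacted 1 h. IC50 came from a sigmoidal fit; Ki via Cheng-Prusoff.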

Rho kinase 2 (ROCK-II) = Rho kinase 2 (ROCK-II) (Homo sapiens, UniProt O75116); assay: In vitro Rho kinase inhibitory activity assay (ADP-Glo), Rho kinase 2; format: biochemical; details: 10 μM ATP, 25° C., expressed as range of activity
Sequence of Rho kinase 2 (ROCK-II) (O75116 whole entry): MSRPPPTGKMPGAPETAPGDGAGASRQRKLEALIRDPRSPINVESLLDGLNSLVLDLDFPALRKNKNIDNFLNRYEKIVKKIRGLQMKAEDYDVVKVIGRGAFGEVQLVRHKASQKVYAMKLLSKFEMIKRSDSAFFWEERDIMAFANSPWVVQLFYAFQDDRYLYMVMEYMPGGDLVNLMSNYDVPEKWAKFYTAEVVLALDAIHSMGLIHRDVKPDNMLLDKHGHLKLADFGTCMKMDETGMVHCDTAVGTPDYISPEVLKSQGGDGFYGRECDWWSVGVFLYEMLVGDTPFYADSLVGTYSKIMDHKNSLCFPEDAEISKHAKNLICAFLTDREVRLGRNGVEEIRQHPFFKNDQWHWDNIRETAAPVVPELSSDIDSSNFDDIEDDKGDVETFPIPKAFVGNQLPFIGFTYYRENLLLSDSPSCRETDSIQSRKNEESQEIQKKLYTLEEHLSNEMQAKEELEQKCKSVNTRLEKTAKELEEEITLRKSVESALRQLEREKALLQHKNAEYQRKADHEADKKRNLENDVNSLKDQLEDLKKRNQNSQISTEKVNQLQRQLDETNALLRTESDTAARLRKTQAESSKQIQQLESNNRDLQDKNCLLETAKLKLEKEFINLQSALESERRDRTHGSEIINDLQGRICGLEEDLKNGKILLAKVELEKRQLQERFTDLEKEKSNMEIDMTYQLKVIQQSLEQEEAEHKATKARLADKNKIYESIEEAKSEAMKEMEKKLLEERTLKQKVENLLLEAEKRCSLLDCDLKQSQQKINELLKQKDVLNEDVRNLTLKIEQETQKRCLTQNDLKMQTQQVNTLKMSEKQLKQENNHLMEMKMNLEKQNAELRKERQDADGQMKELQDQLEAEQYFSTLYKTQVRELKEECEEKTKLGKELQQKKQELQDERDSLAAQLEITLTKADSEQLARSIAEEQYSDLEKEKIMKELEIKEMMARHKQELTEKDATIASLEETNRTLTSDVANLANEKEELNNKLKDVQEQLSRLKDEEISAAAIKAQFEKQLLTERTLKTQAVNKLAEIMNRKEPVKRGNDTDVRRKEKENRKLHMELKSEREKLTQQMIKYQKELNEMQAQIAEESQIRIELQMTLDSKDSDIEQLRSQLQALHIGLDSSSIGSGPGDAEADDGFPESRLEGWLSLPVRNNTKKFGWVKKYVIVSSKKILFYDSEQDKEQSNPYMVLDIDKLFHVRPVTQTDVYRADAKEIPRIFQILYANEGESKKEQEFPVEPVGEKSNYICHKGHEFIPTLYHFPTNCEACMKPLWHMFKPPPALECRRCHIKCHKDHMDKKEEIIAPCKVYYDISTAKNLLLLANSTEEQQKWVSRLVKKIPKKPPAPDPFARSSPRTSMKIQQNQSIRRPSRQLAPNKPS
How it was run: as §1

Sequence of Rho kinase 1 (ROCK-I) (Q13464 whole entry): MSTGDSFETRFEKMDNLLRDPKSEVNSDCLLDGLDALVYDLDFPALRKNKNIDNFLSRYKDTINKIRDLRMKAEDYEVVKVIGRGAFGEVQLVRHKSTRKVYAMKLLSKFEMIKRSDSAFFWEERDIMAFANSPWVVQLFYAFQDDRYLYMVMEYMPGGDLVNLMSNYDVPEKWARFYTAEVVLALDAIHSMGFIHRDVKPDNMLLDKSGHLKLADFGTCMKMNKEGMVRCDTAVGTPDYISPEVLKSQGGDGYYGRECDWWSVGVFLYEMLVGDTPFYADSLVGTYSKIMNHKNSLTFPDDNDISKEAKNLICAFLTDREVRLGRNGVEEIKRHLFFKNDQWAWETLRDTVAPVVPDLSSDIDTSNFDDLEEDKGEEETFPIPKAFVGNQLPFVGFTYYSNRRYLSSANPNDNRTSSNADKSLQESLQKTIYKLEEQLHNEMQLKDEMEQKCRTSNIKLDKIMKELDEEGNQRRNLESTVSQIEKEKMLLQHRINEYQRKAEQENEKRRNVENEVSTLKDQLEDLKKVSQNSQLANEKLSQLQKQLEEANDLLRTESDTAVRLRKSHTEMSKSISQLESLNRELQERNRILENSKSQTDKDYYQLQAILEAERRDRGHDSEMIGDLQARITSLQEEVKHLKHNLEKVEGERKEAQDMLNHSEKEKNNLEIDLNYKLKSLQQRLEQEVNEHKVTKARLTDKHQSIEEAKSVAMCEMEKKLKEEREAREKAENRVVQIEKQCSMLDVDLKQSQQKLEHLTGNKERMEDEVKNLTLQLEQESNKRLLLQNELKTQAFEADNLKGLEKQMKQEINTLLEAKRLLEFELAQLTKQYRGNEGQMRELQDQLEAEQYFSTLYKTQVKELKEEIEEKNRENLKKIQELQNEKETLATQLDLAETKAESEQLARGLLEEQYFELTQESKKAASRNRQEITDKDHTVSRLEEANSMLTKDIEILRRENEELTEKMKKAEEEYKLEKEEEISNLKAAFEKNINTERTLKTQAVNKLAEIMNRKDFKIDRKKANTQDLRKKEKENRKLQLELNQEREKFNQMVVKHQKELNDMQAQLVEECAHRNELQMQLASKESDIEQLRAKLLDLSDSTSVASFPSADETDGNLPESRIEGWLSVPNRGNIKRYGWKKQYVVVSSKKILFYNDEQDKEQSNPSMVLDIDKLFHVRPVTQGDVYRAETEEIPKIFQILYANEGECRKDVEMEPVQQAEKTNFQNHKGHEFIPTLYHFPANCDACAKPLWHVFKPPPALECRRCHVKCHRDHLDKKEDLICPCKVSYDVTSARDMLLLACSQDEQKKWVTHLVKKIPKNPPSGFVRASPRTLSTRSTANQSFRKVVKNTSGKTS

SMILES	Ki (Rho kinase 1 (ROCK-I)) [nM]	Ki (Rho kinase 2 (ROCK-II)) [nM]
Cc1c[nH]c2nccc(Oc3ccc(C[C@H](N)C(=O)N4CCN(Cc5ccccc5)CC4)cc3)c12 [Example 88, (S)-2-amino-1-(4-benzylpiperazin-1-yl)-3-(4-((3-methyl-1H-pyrrolo[2,3-b]pyridin-4-yl)oxy)phenyl)propan-1-one]	< 3	< 3
N[C@@H](Cc1ccc(Oc2ccnc3[nH]ccc23)cc1)C(=O)NC1CCOCC1 [Example 99, (S)-3-(4-((1H-pyrrolo[2,3-b]pyridin-4-yl)oxy)phenyl)-2-amino-N-(tetrahydro-2H-pyran-4-yl)propanamide]	3 to 30	3 to 30
N[C@@H](Cc1ccc(Oc2ccnc3[nH]cc(I)c23)cc1)C(=O)NC1CCCCC1 [Example 190, (S)-2-amino-N-cyclohexyl-3-(4-((3-iodo-1H-pyrrolo[2,3-b]pyridin-4-yl)oxy)phenyl)propanamide]	< 3	< 3
N[C@@H](Cc1ccc(Oc2ccnc3[nH]ccc23)cc1)C(=O)Nc1nccs1 [Example 105, (S)-3-(4-((1H-pyrrolo[2,3-b]pyridin-4-yl)oxy)phenyl)-2-amino-N-(thiazol-2-yl)propanamide]	3 to 30	3 to 30
Cc1c[nH]c2nccc(Oc3ccc(C[C@H](N)C(=O)N4C[C@H]5CNC[C@H]5C4)cc3F)c12 [Example 31, (S)-2-amino-3-(3-fluoro-4-((3-methyl-1H-pyrrolo[2,3-b]pyridin-4-yl)oxy)phenyl)-1-((3aR,6aS)-hexahydropyrrolo[3,4-c]pyrrol-2(1H)-yl)propan-1-one]	< 3	< 3
CN(Cc1ccccc1)C(=O)[C@H](N)Cc1ccc(Oc2ccnc3[nH]ccc23)cc1 [Example 144, (R)-3-(4-((1H-pyrrolo[2,3-b]pyridin-4-yl)oxy)phenyl)-2-amino-N-benzyl-N-methylpropanamide]	> 30	> 30
N[C@@H](Cc1ccc(Oc2ccnc3[nH]cc(CCO)c23)cc1)C(=O)N1CCN(Cc2ccccc2)CC1 [Example 216, (S)-2-amino-1-(4-benzylpiperazin-1-yl)-3-(4-((3-(2-hydroxyethyl)-1H-pyrrolo[2,3-b]pyridin-4-yl)oxy)phenyl)propan-1-one]	< 3	< 3
CN1CCC(NC(=O)[C@@H](N)Cc2ccc(Oc3ccnc4[nH]ccc34)cc2)CC1 [Example 103, (S)-3-(4-((1H-pyrrolo[2,3-b]pyridin-4-yl)oxy)phenyl)-2-amino-N-(1-methylpiperidin-4-yl)propanamide]	3 to 30	3 to 30
N[C@@H](Cc1ccc(Oc2ncnc3[nH]ccc23)cc1)C(=O)N1CCN(Cc2ccccc2)CC1 [Example 226, (S)-3-(4-((7H-pyrrolo[2,3-d]pyrimidin-4-yl)oxy)phenyl)-2-amino-1-(4-benzylpiperazin-1-yl)propan-1-one]	3 to 30	3 to 30
Cc1c[nH]c2nccc(Oc3ccc(C[C@H](N)C(=O)N4CCC(S(=O)(=O)c5ccccc5)CC4)cc3F)c12 [Example 7, (S)-2-amino-3-(3-fluoro-4-((3-methyl-1H-pyrrolo[2,3-b]pyridin-4-yl)oxy)phenyl)-1-(4-(phenylsulfonyl)piperidin-1-yl)propan-1-one]	< 3	< 3
Cc1c[nH]c2nccc(Oc3ccc(CC(N)C(=O)NCc4ccc(CO)cc4)cc3F)c12 (stereo not shown) [Example 62, 2-amino-3-(3-fluoro-4-((3-methyl-1H-pyrrolo[2,3-b]pyridin-4-yl)oxy)phenyl)-N-(4-(hydroxymethyl)benzyl)propanamide]	< 3	< 3
Cc1c[nH]c2nccc(Oc3ccc(CC(N)C(=O)NCCCN4CCOCC4)cc3F)c12 (stereo not shown) [Example 79, 2-amino-3-(3-fluoro-4-((3-methyl-1H-pyrrolo[2,3-b]pyridin-4-yl)oxy)phenyl)-N-(3-morpholinopropyl)propanamide]	< 3	< 3
Cc1c[nH]c2nccc(Oc3ccc(CC(N)C(=O)N4CCN(Cc5ccncc5)CC4)cc3F)c12 (stereo not shown) [Example 51, 2-amino-3-(3-fluoro-4-((3-methyl-1H-pyrrolo[2,3-b]pyridin-4-yl)oxy)phenyl)-1-(4-(pyridin-4-ylmethyl)piperazin-1-yl)propan-1-one]	< 3	< 3
Cc1c[nH]c2nccc(Oc3ccc(C[C@H](N)C(=O)N(C)C4CCN(C)CC4)cc3F)c12 [Example 44, (S)-2-amino-3-(3-fluoro-4-((3-methyl-1H-pyrrolo[2,3-b]pyridin-4-yl)oxy)phenyl)-N-methyl-N-(1-methylpiperidin-4-yl)propanamide]	3 to 30	< 3
N[C@H](Cc1ccc(Oc2ccnc3[nH]ccc23)cc1)C(=O)NCc1ccccc1 [Example 98, (R)-3-(4-((1H-pyrrolo[2,3-b]pyridin-4-yl)oxy)phenyl)-2-amino-N-benzylpropanamide]	> 30	> 30
CN(C(=O)[C@@H](N)Cc1ccc(Oc2ccnc3[nH]ccc23)cc1)C1CCCCC1 [Example 101, (S)-3-(4-((1H-pyrrolo[2,3-b]pyridin-4-yl)oxy)phenyl)-2-amino-N-cyclohexyl-N-methylpropanamide]	3 to 30	3 to 30
Cc1c[nH]c2nccc(Oc3ccc(C[C@H](N)C(=O)N4CCN(Cc5ccc(OCCCN(C)C)cc5)CC4)cc3F)c12 [Example 160, (S)-2-amino-1-(4-(4-(3-(dimethylamino)propoxy)benzyl)piperazin-1-yl)-3-(3-fluoro-4-((3-methyl-1H-pyrrolo[2,3-b]pyridin-4-yl)oxy)phenyl)propan-1-one]	< 3	< 3
Cc1c[nH]c2nccc(Oc3ccc(C[C@H](N)C(=O)N(C)CC4CCN(C)CC4)cc3F)c12 [Example 39, (S)-2-amino-3-(3-fluoro-4-((3-methyl-1H-pyrrolo[2,3-b]pyridin-4-yl)oxy)phenyl)-N-methyl-N-((1-methylpiperidin-4-yl)methyl)propanamide]	3 to 30	3 to 30
Cc1c[nH]c2nccc(Oc3ccc(C[C@H](N)C(=O)N4CCC(O)(Cc5ccccc5)CC4)cc3F)c12 [Example 9, (S)-2-amino-1-(4-benzyl-4-hydroxypiperidin-1-yl)-3-(3-fluoro-4-((3-methyl-1H-pyrrolo[2,3-b]pyridin-4-yl)oxy)phenyl)propan-1-one]	< 3	< 3
Cc1c[nH]c2ncnc(Oc3ccc(C[C@H](N)C(=O)N4CCN(Cc5ccccc5)CC4)cc3F)c12 [Example 115, (S)-2-amino-1-(4-benzylpiperazin-1-yl)-3-(3-fluoro-4-((5-methyl-7H-pyrrolo[2,3-d]pyrimidin-4-yl)oxy)phenyl)propan-1-one]	< 3	< 3
Cc1c[nH]c2nccc(Oc3ccc(CC(N)C(=O)N4CCc5ccncc5C4)cc3F)c12 (stereo not shown) [Example 67, 2-amino-1-(3,4-dihydro-2,7-naphthyridin-2(1H)-yl)-3-(3-fluoro-4-((3-methyl-1H-pyrrolo[2,3-b]pyridin-4-yl)oxy)phenyl)propan-1-one]	< 3	< 3
Cc1c[nH]c2nccc(Oc3ccc(C[C@H](N)C(=O)NCCc4cnn(-c5ccccc5)c4)cc3F)c12 [Example 56, (S)-2-amino-3-(3-fluoro-4-((3-methyl-1H-pyrrolo[2,3-b]pyridin-4-yl)oxy)phenyl)-N-(2-(1-phenyl-1H-pyrazol-4-yl)ethyl)propanamide]	< 3	< 3
Cc1c[nH]c2nccc(Oc3ccc(C[C@@H](N)C(=O)NC4CCOCC4)cc3F)c12 [Example 55, (R)-2-amino-3-(3-fluoro-4-((3-methyl-1H-pyrrolo[2,3-b]pyridin-4-yl)oxy)phenyl)-N-(tetrahydro-2H-pyran-4-yl)propanamide]	3 to 30	3 to 30
Cc1c[nH]c2nccc(Oc3ccc(C[C@H](N)C(=O)Nc4ccccc4)cc3F)c12 [Example 145, (S)-2-amino-3-(3-fluoro-4-((3-methyl-1H-pyrrolo[2,3-b]pyridin-4-yl)oxy)phenyl)-N-phenylpropanamide]	< 3	< 3
Cc1c[nH]c2ncnc(Oc3ccc(C[C@H](N)C(=O)N4CCN(C)CC4)cc3F)c12 [Example 118, (S)-2-amino-3-(3-fluoro-4-((5-methyl-7H-pyrrolo[2,3-d]pyrimidin-4-yl)oxy)phenyl)-1-(4-methylpiperazin-1-yl)propan-1-one]	3 to 30	3 to 30
CN1CCC(NC(=O)[C@@H](N)Cc2ccc(Oc3ccnc4[nH]cc(-c5ccccc5)c34)c(F)c2)CC1 [Example 204, (S)-2-amino-3-(3-fluoro-4-((3-phenyl-1H-pyrrolo[2,3-b]pyridin-4-yl)oxy)phenyl)-N-(1-methylpiperidin-4-yl)propanamide]	< 3	< 3
Cc1c[nH]c2ncnc(Oc3ccc(C[C@H](N)C(=O)NC4CCOCC4)cc3F)c12 [Example 125, (S)-2-amino-3-(3-fluoro-4-((5-methyl-7H-pyrrolo[2,3-d]pyrimidin-4-yl)oxy)phenyl)-N-(tetrahydro-2H-pyran-4-yl)propanamide]	3 to 30	3 to 30
Cc1c[nH]c2nccc(Oc3ccc(C[C@H](N)C(=O)NC4CCOCC4)cc3F)c12 [Example 54, (S)-2-amino-3-(3-fluoro-4-((3-methyl-1H-pyrrolo[2,3-b]pyridin-4-yl)oxy)phenyl)-N-(tetrahydro-2H-pyran-4-yl)propanamide]	< 3	< 3
Cc1c[nH]c2ncnc(Oc3ccc(C[C@H](N)C(=O)NC4CCN(C)CC4)cc3F)c12 [Example 117, (S)-2-amino-3-(3-fluoro-4-((5-methyl-7H-pyrrolo[2,3-d]pyrimidin-4-yl)oxy)phenyl)-N-(1-methylpiperidin-4-yl)propanamide]	3 to 30	3 to 30

From patent US10501461B2, “Tyrosine amide derivatives as Rho-kinase inhibitors” (CHIESI FARMACEUTICI S.P.A., priority 2017, dated 2019)
